Laboratory results taken from publication PMC9060532 (RSC Advances, 2019).

How the values were obtained:
[1] = Metabolite identification in rat plasma, urine and feces by HPLC-Q-TOF MS/MS; type: in vivo, Sprague-Dawley rats; conditions: rats, bornyl caffeate ig 30 mg kg^−1; p plasma, u urine, f feces
[2] = Pharmacokinetic study in rats, plasma by HPLC-Ion-Trap-MS/MS; type: in vivo, Sprague-Dawley rats
[3] = Stability of bornyl caffeate and caffeic acid in rat plasma; type: in vitro ADME; conditions: for Autosampler stability Concentration measured / Autosampler stability Stability (%): processed rat plasma QC, autosampler 20 °C 24 h; for Autosampler stability Concentration measured / Autosampler stability Stability (%) / Short-term Concentration measured / Short-term Stability (%) / Freeze–thaw Concentration measured / Freeze–thaw Stability (%) / Long-term Concentration measured / Long-term Stability (%): n = 6; for Short-term Concentration measured / Short-term Stability (%) / Freeze–thaw Concentration measured / Freeze–thaw Stability (%) / Long-term Concentration measured / Long-term Stability (%): rat plasma; for Short-term Concentration measured / Short-term Stability (%): room temperature 24 h; for Freeze–thaw Concentration measured / Freeze–thaw Stability (%): three freeze–thaw cycles (−20 °C 24 h); for Long-term Concentration measured / Long-term Stability (%): −20 °C 3 weeks
[4] = CA in rat plasma after CA ig 17 mg kg^−1, n = 6
[5] = Sprague-Dawley, rat, plasma, po, 17 mg/kg

O=C(O)CCc1ccc(O)c(O)c1 [M4, Dihydrocaffeic acid]
Location (samples in which parent or metabolite was detected) [1]: observed in all the three kinds of samples

O=C(O)c1ccccc1 [M8, Benzoic acid]
Location (samples in which parent or metabolite was detected) [1]: urine and feces

O=C(O)/C=C/c1ccc(O)c(O)c1 [Caffeic acid]
T 1/2Ka [2, 4]: 7.2 ± 1.8 min
T 1/2α1 [2, 4]: 24 ± 5.4 min
AUC(0-inf) [2, 5]: 821 ± 86.2 ng·h/mL
AUC(0-t) [2, 5]: 787 ± 80.3 ng·h/mL
Cmax [2, 5]: 450 ± 13.8 ng/mL
Tmax [2, 5]: 15 ± 0.6 min
Autosampler stability Concentration measured ([3]; 4 ng mL^−1 added): 3.93 ± 0.16 ng/mL
Autosampler stability Stability (%) ([3]; 4 ng mL^−1 added): 98.25%
Autosampler stability Concentration measured ([3]; 200 ng mL^−1 added): 191.9 ± 6.19 ng/mL
Autosampler stability Stability (%) ([3]; 200 ng mL^−1 added): 95.95%
Autosampler stability Concentration measured ([3]; 3000 ng mL^−1 added): 2991.17 ± 12.48 ng/mL
Autosampler stability Stability (%) ([3]; 3000 ng mL^−1 added): 99.7%
Short-term Concentration measured ([3]; 4 ng mL^−1 added): 3.97 ± 0.15 ng/mL
Short-term Stability (%) ([3]; 4 ng mL^−1 added): 99.38%
Freeze–thaw Concentration measured ([3]; 4 ng mL^−1 added): 3.77 ± 0.14 ng/mL
Freeze–thaw Stability (%) ([3]; 4 ng mL^−1 added): 94.29%
Long-term Concentration measured ([3]; 4 ng mL^−1 added): 4.03 ± 0.18 ng/mL
Long-term Stability (%) ([3]; 4 ng mL^−1 added): 100.79%
Short-term Concentration measured ([3]; 200 ng mL^−1 added): 196.41 ± 4.57 ng/mL
Short-term Stability (%) ([3]; 200 ng mL^−1 added): 98.2%
Freeze–thaw Concentration measured ([3]; 200 ng mL^−1 added): 202.1 ± 6.48 ng/mL
Freeze–thaw Stability (%) ([3]; 200 ng mL^−1 added): 101.05%
Long-term Concentration measured ([3]; 200 ng mL^−1 added): 197.22 ± 6.86 ng/mL
Long-term Stability (%) ([3]; 200 ng mL^−1 added): 98.61%
Short-term Concentration measured ([3]; 3000 ng mL^−1 added): 3009.81 ± 6.45 ng/mL
Short-term Stability (%) ([3]; 3000 ng mL^−1 added): 100.33%
Freeze–thaw Concentration measured ([3]; 3000 ng mL^−1 added): 2835.08 ± 9.86 ng/mL
Freeze–thaw Stability (%) ([3]; 3000 ng mL^−1 added): 94.23%
Long-term Concentration measured ([3]; 3000 ng mL^−1 added): 2990.99 ± 4.97 ng/mL
Long-term Stability (%) ([3]; 3000 ng mL^−1 added): 99.7%
stability in plasma (in words) ([3]; room temperature for 24 h, −20 °C for 3 weeks, or autosampler for 24 h): stable

COc1ccc(/C=C/C(=O)O)cc1O [M14b, Isoferulic acid]
Location (samples in which parent or metabolite was detected) [1]: observed in all the three kinds of samples

COc1cc(CCC(=O)O)ccc1O [M9a, Dihydroferulic acid]
Location (samples in which parent or metabolite was detected) [1]: found in rat feces alone
